Reference: patent US5512478A, “Genes and enzymes involved in the microbial degradation of pentachlorophenol” (Idaho Research Foundation, Inc., priority 1994, dated 1996)
Like-named read-outs stand apart in the source and are kept apart here.

Tests used:
PcpB [1] = target: T1, PcpB (Sphingobium chlorophenolicum, UniProt P42535); assay: Substrate disappearance in the presence of PcpB (substrate range); assay type: biochemical, Flavobacterium sp. Strain ATCC 39723; details: for (%) Relative Activity (substrate disappearance in the presence of PcpB): 10 nmoles substrate, 40 nmoles NADPH, PcpB 500 μg/ml, 80 mM potassium phosphate pH 7.5, 0.5% Tween 20, 23° C., PCP assumed 100%; for End Products of PcpB reaction: HPLC or GC/MS analysis
T1 construct: endogenous in cells; host or cells: Flavobacterium sp; Strain ATCC 39723, PCP-induced; enzyme purified in house from the native bacterium
T1 sequence (P42535 2-538): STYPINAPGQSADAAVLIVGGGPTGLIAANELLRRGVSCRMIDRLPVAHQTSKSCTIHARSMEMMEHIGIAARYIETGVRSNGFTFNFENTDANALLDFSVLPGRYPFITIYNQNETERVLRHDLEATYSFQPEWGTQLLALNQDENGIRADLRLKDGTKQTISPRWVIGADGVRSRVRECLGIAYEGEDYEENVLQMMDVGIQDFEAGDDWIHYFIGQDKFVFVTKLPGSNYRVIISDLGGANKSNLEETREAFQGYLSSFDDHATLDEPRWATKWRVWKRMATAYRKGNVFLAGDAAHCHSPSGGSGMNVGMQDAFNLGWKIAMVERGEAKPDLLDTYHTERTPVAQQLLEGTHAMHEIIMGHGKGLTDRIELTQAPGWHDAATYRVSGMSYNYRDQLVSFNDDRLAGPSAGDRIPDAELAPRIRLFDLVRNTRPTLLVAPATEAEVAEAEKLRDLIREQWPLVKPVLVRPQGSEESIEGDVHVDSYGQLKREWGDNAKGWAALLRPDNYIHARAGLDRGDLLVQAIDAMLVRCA
Method: A stock solution of PCP (concentration, 37.6 mM) was prepared in 0.2M NaOH and stored in the dark at room temperature. Stock solutions of all other halogenated aromatic compounds (concentration, 20 mM) were prepared in absolute ethanol and stored at 4° C. in the dark. The NADPH solution of 10 mM was freshly prepared in 1 mM dithiothreitol and 1 mM Tris base (pH 13).
PcpB was purified as described above. Enzyme reactions were conducted in 80 mM potassium phosphate buffer (pH 7.5) with 0.5% Tween 20 at 23° C. The enzyme concentration was 500 μg/ml in all reactions.
All of the aromatic substrates and the corresponding enzyme product (aromatic portion) were monitored by reverse phase high-performance liquid chromatography (HPLC) analysis as described above for PCP and TeCH analysis, except that the absorptions at 285, 300, and 310 nm were recorded by using a Waters 490 E programmable multiwavelength UV detector. Gas chromatography/mass spectrometry (GC/MS) analysis was done as previously described (Topp and Akhtar, 1990).
I^- was measured by the Leuco crystal violet assay described above. NO2 was colorimetrically measured using the N-(1-naphthyl) ethylenediamine dihydrochloride-sulfanilamide reagent method (American Public Health Association, 17th Ed., 1989). NH3 was colorimetrically measured by Nesslerization method (American Public Health Association, 17th Ed., 1989). CN was measured by the colorimetric method of Nagashima (1984). NH2 OH was measured by the method of Magee and Burris (1954).
^a All enzyme reactions were conducted in a reaction mix volume of 10
μl, containing 10 nmoles of substrate, 40 nmoles of NADPH. The
substrate depletion and product production were measured by HPLC or GC/MS
analysis. Relative enzyme activity for PCP was assumed to be 100%; the
relative enzyme activities for other compounds were compared with that fo

PcpB [2] = target: T1, PcpB; details: GC/MS; cited from earlier work
PcpB [3] = target: T1, PcpB; assay: PCP degradation as an assay of PcpB activity (HPLC); assay type: biochemical, Flavobacterium sp. Strain ATCC 39723
Method: PcpB activity was assayed by measuring the depletion of PCP and/or the production of TECH. […] MgSO4 was later determined not to enhance the activity of the purified enzyme. Tween 20 was determined to facilitate reproducible quantitation of PCP by high-performance liquid chromatography (HPLC) analysis as described below. A 10 μl volume of reaction mixture was injected onto the HPLC column at 4 min. after the start of the reaction. One unit of enzyme activity was defined as the amount of enzyme that catalyzed the production of 1 μmol of TeCH or the consumption of 1 μmol of PCP per min under the assay conditions. The reaction rate was linear for about 5 min. with […] of the enzyme, and then the reaction rate decreased gradually over the next 15 min.
PCP and TeCH were analyzed by HPLC (Waters, Milford, Mass.) on a Nova-Pak C18 column (3.9 by 150 mm) with an 11 mM H3 PO4 -acetonitrile gradient (acetonitrile concentrations 10 to 65% 5 min.! and 65% 10 min.!). Maximum absorption at 310, 320, and 330 nm was recorded by use of a Waters 490E programmable multiwavelength UV detector connected to a Maxima NEC computer workstation (Waters). The retention times of PCP and TeCH were 11.5 and 8.9 min., respectively. PCP and TeCH were quantified by comparing their peak areas with the peak areas of authentic standards. NADPH concentration in the reaction mixture was measured by HPLC on the Nova-Pak C18 column with an isocratic 50 mM KPi buffer (ph 8.0). Flavins were determined by HPLC on a μCarbohydrate analyzing column (3.9 by 300 mm) (Analytical Sciences Incorporated, Santa Clara, Calif.) with an isocratic solution of acetonitrile-distilled water (60:40, vol/vol). Protein purity was checked by HPLC on a Delta Pak C18 30 nm column (3.9 by 150 mm) with a water-acetonitrile gradient containing 0.1% trifluoroacetic acid (acetonitrile concentrations, 15% 1 min.!, 15 to 40% 1 min.!, 40% 2 min.!, 40 to 75% 8 min.!, 75 to 100% 1 min.!, 100% 7 min.!, 100 to 15% 1 min.!) at a flow rate of 1 ml/min. […]
and incubated at room temperature for 4 min. before being analyzed by […]

[4] = Stability of TeCH in the PcpB reaction mixture; assay type: physicochemical
PcpC = target: T2, PcpC (Sphingobium chlorophenolicum, UniProt Q03520); assay type: biochemical, Flavobacterium sp. Strain ATCC 39723; details: 33 μg of purified enzyme per ml; GC-MS of ether extract
T2 construct: endogenous in cells; host or cells: Flavobacterium sp; Strain ATCC 39723, PCP-induced; enzyme purified in house from the native bacterium
T2 sequence (Q03520 2-248): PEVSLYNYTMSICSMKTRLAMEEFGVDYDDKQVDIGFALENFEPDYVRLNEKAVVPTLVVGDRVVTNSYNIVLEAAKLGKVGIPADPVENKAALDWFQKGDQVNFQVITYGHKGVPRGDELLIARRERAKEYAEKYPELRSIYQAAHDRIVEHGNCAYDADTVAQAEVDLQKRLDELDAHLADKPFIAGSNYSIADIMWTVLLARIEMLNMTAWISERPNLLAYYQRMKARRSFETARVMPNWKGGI
Method: Enzymatic activity assay. The reaction mixture contained 50 mM KPi buffer (pH 7.4), 0.4% Tween 20 (Sigma), 100 μM of TeCH, and 1 mM ascorbic acid. All the reactions were incubated at 23° C. in an anaerobic chamber containing an atmosphere of 85% N2, 5% CO2, and 10% H2 (Coy Laboratory Products Inc., Ann Arbor, Mich.). The reactions were stopped by addition of an equal volume of acetonitrile to the reaction mixture. TeCH stock solution (20 mM) was prepared in absolute ethanol. NADPH and NADH stock solutions (10 mM) were freshly prepared in 1 mM Tris buffer (pH 13) with 1 mM dithiothreitol. […]
Analytical method. […] TeCH, TrCH and DiCH were analyzed by HPLC on a Nova-Pak C-18 column (3.9 by 150 mm) (Waters, Milford, Mass.) with an 11 mM H3 PO4 -acetonitrile gradient as described above. Maximum absorption at 285, 300, 310 nm was recorded by using a Waters 490E programmable multiwave-length UV detector connected to a Maxima NEC computer workstation (Waters). […] TeCH and DiCH in the reaction mixtures were identified and quantified by comparison of their retention time and peak areas with that of authentic standards, respectively. TrCH was extracted with diethyl ether from the reaction mixture and analyzed by gas chromatography/mass spectrometry (GC/MS) as described by Topp and Akhtar (1990). […] GSH and the oxidized form of glutathione (GS-SG) were detected by the enzymatic method of Tietze (1969).

SMILES | (%) Relative Activity (substrate disappearance in the presence of PcpB) (PcpB [1]) [%] | End Products of PcpB reaction (PcpB [1]) | further results
Oc1ccc(Cl)c(Cl)c1Cl [2,3,4-Trichlorophenol] | 29 |  | 
Oc1c(Cl)c(Cl)cc(Cl)c1Cl [2,3,5,6-Tetrachlorophenol] | 1212 | TeCH | 
Oc1c(Cl)ccc(Cl)c1Cl [2,3,6-Trichlorophenol, 2,3,6-trichlorophenol] | 302 | 2,3,6-trichloro-p-hydroquinone | 
Oc1cccc(Cl)c1Cl [2,3-Dichlorophenol] | 24 |  | 
Oc1c(Br)cc(Br)cc1Br [2,4,6-Tribromophenol] | 35 |  | 
Oc1c(Cl)cc(Cl)cc1Cl [2,4,6-Trichlorophenol, 2,4,6-trichlorophenol] | 29 | 2,6-dichloro-p-hydroquinone | 
Oc1c(I)cc(I)cc1I [2,4,6-Triiodophenol] | 172 | 2,6-diiodo-p-hydroquinone | 
O=[N+]([O-])c1cc(Br)c(O)c(Br)c1 [2,6-Dibromo-4-nitrophenol] | 62 |  | 
Oc1c(Br)cccc1Br [2,6-Dibromophenol] | 605 |  | 
Oc1c(Cl)cccc1Cl [2,6-Dichlorophenol, 2,6-dichlorophenol] | 344 | 2,6-dichloro-p-hydroquinone | 
Oc1cc(Cl)c(Cl)c(Cl)c1 [3,4,5-Trichlorophenol, 3,4,5trichlorophenol] | 0 | None | 
N#Cc1cc(Br)c(O)c(Br)c1 [3,5-Dibromo-4-hydroxybenzonitrile] | 591 |  | End Products of PcpB reaction (from Topp et al.) (PcpB [2]): 2,6-dibromo-p-hydroquinone
Oc1cc(Cl)cc(Cl)c1 [3,5-Dichlorophenol, 3,5dichlorophenol] | 0 | None | 
N#Cc1cc(I)c(O)c(I)c1 [3,5-Diiodo-4-hydroxybenzonitrile] | 835 |  | End Products of PcpB reaction (PcpB [1]; listed as 3,5-diiodo-4-hydroxylbenzonitrile): DIHQ
Nc1cc(Cl)c(O)c(Cl)c1 [4-Amino-2,6-dichlorophenol] | 93 |  | 
O=C(O)CN(CCN(CC(=O)O)CC(=O)O)CC(=O)O [EDTA] |  |  | influence of additive on activity of purified PcpB (PcpB [3]): did not influence the enzymatic activity
O=S(=O)([O-])[O-].[Mg+2] [MgSO4] |  |  | influence of additive on activity of purified PcpB (PcpB [3]; addition to 5 mM): did not influence the enzymatic activity
Oc1c(Cl)c(Cl)c(Cl)c(Cl)c1Cl [Pentachlorophenol] | 100 |  | End Products of PcpB reaction (PcpB [1]; listed as PCP): TeCH; Conversion of PCP to TeCH by purified PcpB (PcpB [3]; 37 μM PCP, 100 mM KPi buffer (pH 7.0), 100 μM NADPH, within 20 min.): completely converted
Oc1c(F)c(F)c(F)c(F)c1F [Pentafluorophenol] | 47 |  | 
Oc1c(Cl)c(Cl)c(O)c(Cl)c1Cl [TeCH, 2,3,5,6-tetrachloro-p-hydroquinone] |  |  | stability of TeCH ([4]; optimal pH conditions (7.5 to 9.0)): highly unstable; stability of TeCH ([4]; pH lower than 7.5): relatively stable; product of TeCH conversion by TeCH reductive dehalogenase (PcpC): DiCH
Oc1ccccc1 [phenol] |  |  | Extent of oxidation/degradation by the enzyme (PcpB [1]): not degraded
